Results reported in patent US10071133B2, “Method for destroying exosomes, kit for destroying exosomes, and method for isolating exosomes derived from normal cells” (priority 2015, dated 2018).

Assays:
[1] = tested on: exosome fraction B derived from human breast cancer cells (MDA-MB-231-luc-D3H2LN); test: Extraction of microRNA (miR-21) from exosomes derived from human breast cancer cells, real-time PCR; assay type: biochemical; conditions: 100 μM peptide, 1×10^11 particles/mL exosomes, 0.4 U/μL RNase inhibitor, 37° C., 24 hours; without peptide 8×10^−14M
Experimental: (§1) A cell suspension of cell line MDA-MB-231-luc-D3H2LN derived from human breast cancer (=MM231-luc-D3H2LN, provided by the National Cancer Center Research Institute) was seeded in a dish containing RPMI 1640 medium (manufactured by Thermo Fisher Scientific Inc.) containing 10% fetal bovine serum. Subsequently, the cell line was grown at 37° C. under the condition that CO2 concentration was set to 5 volume % using a CO2 incubator, and then the medium was replaced with Advanced RPMI 1640 medium (manufactured by Thermo Fisher Scientific Inc.), followed by culturing for 48 hours, and therefore the culture solution containing exosomes was obtained. This culture solution was centrifuged at 2,000 G for 10 minutes to remove the precipitate, followed by centrifugation at 110,000 G for 70 minutes to precipitate the exosomes, and therefore an exosome fraction B was recovered. The recovered exosome fraction B was suspended in a phosphate buffered saline (PBS) and then stored at 4° C. Storage samples were lightly suspended with a vortex mixer (vibration mixer) before use.
MicroRNA (miR-21 or miR-16) in the reaction solution was subjected to reverse transcription PCR using reverse transcription primers (manufactured by Thermo Fisher Scientific Inc., Taqman microRNA Assays, RT primers, and hsa-mir-21 or hsa-mir-16) and a reverse transcriptase (manufactured by Thermo Fisher Scientific Inc., Taqman microRNA RT kit).
The reverse transcription PCR solution obtained by the above described method was processed and by comparing the number of cycles on a calibration curve of microRNA using Taqman Assay primer (manufactured by Thermo Fisher Scientific Inc., Taqman microRNA Assays, Taqman Assay primer, and hsa-mir-21 or hsa-mir-16) and Real-Time PCR Master Mixes (manufactured by Thermo Fisher Scientific Inc., TaqMan Universal PCR Master Mix II, w/UNG) with StepOnePlus Real-Time PCR System, MiR-21 or miR-16 was quantified. The calibration curve of microRNA was created using synthetic miR-21 (manufactured by Sigma-Aldrich Co. LLC.) or synthetic miR-16 (manufactured by Sigma-Aldrich Co. LLC.).
10 μL of the exosome fraction was prepared such that PBS contains 1×10^11 particles/mL of the exosome fraction B derived from human breast cancer cells, various antimicrobial peptides shown in the following Table 2 adjusted to 100 μM, and 0.4 U/μL of RNase inhibitor (manufactured by Toyobo Co., Ltd.), followed by incubation by being left to stand at 37° C. for 24 hours.
MicroRNA eluted into the solution was purified and recovered from the incubated solution of Example 10 above and Comparative Example 6 above by the following method.
First, 160 μL of PBS was added to the reaction solution, and then the solution was added to a centrifugal filter (manufactured by Millipore Corporation, Amicon Ultra 0.5 mL, 100K filter) and centrifuged at 14,000 G for 2 minutes. Subsequently, 100 μL of the centrifuged filtrate was recovered and introduced into a 1.5 mL tube. Next, 350 μL of RLT buffer (manufactured by QIAGEN, attached with RNeasy mini kit) and 675 μL of ethanol were added and mixed in the 1.5 mL tube. The obtained mixture was separated into two parts, and each of the separates was added onto a spin column (manufactured by QIAGEN, attached with RNeasy mini kit) followed by centrifugation at 8,000 G for 15 seconds, and the entire amount of the mixture was passed through the spin column. Thereafter, 500 μL of RPE buffer (manufactured by QIAGEN, attached with RNeasy mini kit) was added thereto and centrifuged at 8,000 G for 15 seconds. Furthermore, 500 μL of the RPE buffer was added to the spin column once more and centrifuged at 8,000 G for 15 seconds. Thereafter, the spin column was centrifuged at 14,000 G for 1 minute to remove the residual RPE buffer. Next, 30 μL of RNase free water (manufactured by QIAGEN, attached with RNeasy mini kit) was added to the spin column, left for 1 minute, and then centrifuged at 14,000 G for 1 minute, and the eluate obtained thereby was recovered. […]

[2] = tested on: exosome fraction B derived from human breast cancer cells versus exosome fraction derived from normal human serum; test: Selectivity: miR-16 ratio, breast cancer exosomes versus normal human serum exosomes (Formula 2); assay type: biochemical; conditions: Formula 2, cancer/normal human serum exosomes; magainin 2 100 μM, 37° C., 24 hours
Experimental: as §1
Storage samples were lightly suspended with a vortex mixer (vibration mixer) before use. […]

[3] = tested on: exosomes derived from human breast cancer cells (MM231-luc-D3H2LN) in human peripheral blood sample; conditions: […]10^10 particles/mL exosomes, 100 μM magainin 2 or 8% phenol, 25° C., 24 hours
Experimental: The exosome fraction A prepared from the cell line MM231-luc-D3H2LN derived from human breast cancer cells was added to a peripheral blood sample collected from a healthy person with no cancer (hereinafter will be also referred to as human peripheral blood sample) so as to become an exosome concentration of an actual cancer patient, and thereby an artificial sample of a human peripheral blood of the cancer patient was produced. The human peripheral blood sample was obtained after procurement of the patient informed consent according to the Declaration of Helsinki, similarly to the method described in Japanese Unexamined patent publication No. 2013-198483, for example. Blood was drawn using a blood collection tube containing an anticoagulant.
Using a part of the incubated solution, the exosomes were purified with Exo-Flow32 CD9 IP Kit (manufactured by SBI), and then the number of exosomes in the solution was measured using the nanoparticle analyzer (NanoSight LM10; manufactured by NanoSight, Ltd.). […] In addition, a part of the incubated solution was subjected to the serum component protein electrophoresis.

In the case of Magainin 2, the “Destructive activity (concentration of microRNA miR-21 in eluate)” value [1] is reported as “A (the concentration of microRNA is 50×10^−14M or more)”, the mir-16 ratio [2] is reported as 56.6 and the “exosome amount compared to Comparative Example 3 (no additive)” value [3] is reported as “decreased”.
